In ChEMBL document CHEMBL1201862, “PubChem BioAssay data set” (2004) one finds EC50 and AC50 data, which are given here for 15 molecules.

Structures are written as SMILES. Activity calls are given as the source filed them. Cut-off read from the data, not from the text of the source, for most assays here: actives have a measured EC50 and inactives only a lower limit.
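Throughout, for AC50: cells exposed to compound for roughly 70 hours or longer before luminescence read.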

For the first experiment, the target named is T1, Streptokinase A (Streptococcus pyogenes serotype M1, UniProt P10520).
T1 sequence (P10520 whole entry): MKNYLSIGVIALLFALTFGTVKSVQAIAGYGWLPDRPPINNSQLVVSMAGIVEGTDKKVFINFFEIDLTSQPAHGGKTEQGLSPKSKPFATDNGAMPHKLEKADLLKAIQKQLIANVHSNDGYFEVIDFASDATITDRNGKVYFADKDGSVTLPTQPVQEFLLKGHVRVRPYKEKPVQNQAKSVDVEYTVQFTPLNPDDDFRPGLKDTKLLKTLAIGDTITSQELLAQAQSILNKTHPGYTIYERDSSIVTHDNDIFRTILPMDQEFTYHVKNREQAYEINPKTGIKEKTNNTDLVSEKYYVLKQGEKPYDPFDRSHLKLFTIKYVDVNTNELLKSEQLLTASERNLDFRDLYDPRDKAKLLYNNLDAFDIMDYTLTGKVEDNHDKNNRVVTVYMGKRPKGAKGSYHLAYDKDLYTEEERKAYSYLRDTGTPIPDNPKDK
The experiment is described as follows: viability-normalized secreted streptokinase activity reduction – plasminogen activation absorbance, OD405, dose response (AID 1914).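 Note: secreted streptokinase activity via plasminogen activation per viability signal from cell pellet.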
Conditions: not given
The experiment is classed as functional, Streptococcus pyogenes M1 GAS.
Turning to `CC1CC(NC(=O)c2c(O)n3ccsc3nc2=O)CC(C)(C)C1` (stereo not drawn), the EC50 is 14.5 µM (active).
Still for that read-out and setting: the result for `CCCCn1c(O)c(N=NC(=O)c2ccccc2NS(=O)(=O)c2cccs2)c2ccccc21` reads > 150 µM (not active).
On the same count and under the same terms, the result for `N#Cc1c(N)nc(Sc2ccc(Cl)cc2)c(C#N)c1-c1ccccc1Cl` reads 13.2 µM (active); that for `CCc1ccc(/C=C2/SC(=S)N(CC(=O)Nc3nc4ccccc4s3)C2=O)cc1`, > 150 µM (not active).
Still for that read-out and setting: the result for `Cc1cc(N2CCN(c3ccccc3Cl)CC2)n2cc(-c3ccccc3)nc2n1` reads > 150 µM (not active); that for `C/C(=N\Nc1nc2ccccc2s1)c1ccc2c(c1)OCO2`, > 150 µM (not active).
Turning to `C=CCn1c(SC/C(O)=C(/C#N)C(C)=N)nc2sc(C)c(C)c2c1=O`, the EC50 was > 150 µM (not active).
Still for that read-out and setting: next, `CC(C)c1nc(NCc2ccccc2)c(C#N)c2c1CCCC2`: 1.96 µM (active).
For the molecule `CCc1ccc(NC2=NCC(c3ccccc3)S2)cc1` (stereo not drawn), the EC50 was > 150 µM (not active).
Same read-out and setting: the result for `CCOC(=O)c1ccc(NC(=S)NN)cc1` reads > 150 µM (not active).

The next experiment addresses T2, Corticotropin-releasing factor receptor 2/Corticotropin-releasing factor-binding protein (Homo sapiens, UniProt P24387+Q13324).
T2 sequence (Q13324 whole entry): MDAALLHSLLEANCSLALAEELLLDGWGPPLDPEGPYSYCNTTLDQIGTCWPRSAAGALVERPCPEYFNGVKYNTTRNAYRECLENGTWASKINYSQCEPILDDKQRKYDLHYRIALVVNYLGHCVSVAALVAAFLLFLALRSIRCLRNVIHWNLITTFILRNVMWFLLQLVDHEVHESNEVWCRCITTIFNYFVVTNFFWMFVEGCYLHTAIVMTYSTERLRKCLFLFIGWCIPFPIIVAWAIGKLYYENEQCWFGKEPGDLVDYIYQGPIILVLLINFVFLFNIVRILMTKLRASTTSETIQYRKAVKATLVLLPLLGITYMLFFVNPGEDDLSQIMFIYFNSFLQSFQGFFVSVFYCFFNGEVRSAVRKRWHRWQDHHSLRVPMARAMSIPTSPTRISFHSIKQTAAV
T2 sequence (P24387 whole entry): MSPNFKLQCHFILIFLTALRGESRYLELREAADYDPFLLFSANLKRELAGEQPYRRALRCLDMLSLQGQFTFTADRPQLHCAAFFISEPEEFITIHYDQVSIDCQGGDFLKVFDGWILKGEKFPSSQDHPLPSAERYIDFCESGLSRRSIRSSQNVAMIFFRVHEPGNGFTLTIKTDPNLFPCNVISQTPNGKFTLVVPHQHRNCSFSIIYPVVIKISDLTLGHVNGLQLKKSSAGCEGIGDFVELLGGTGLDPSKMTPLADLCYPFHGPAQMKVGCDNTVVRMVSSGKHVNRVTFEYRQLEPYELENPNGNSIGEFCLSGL
The experiment is described as follows: activators of CRF receptor 2 with binding protein – uHTS hits, confirmation (AID 602473). The format is functional. The settings on record: read-out: EC50_Mean.
For the molecule `CCn1cc(C(=O)NCCCN(CC(C)C)CC(C)C)c(=O)c2cc(S(=O)(=O)N(C)C3CCCCC3)ccc21`, the EC50 was 7.06 µM (active).
`CSc1ccccc1NC(=O)COC(=O)c1c[nH]c(=O)[nH]c1=O`: the EC50 was > 53 µM (inactive).

Tested on in another experiment: not listed separately
The experiment can be described thus: Luminescence Cell-Based Dose Retest to Confirm Inhibitors of Cancer Stem Cells. [Related pubchem assays (depositor defined):AID2717, AID2721]. The settings on record: Homo sapiens. The experiment is classed as functional, Homo sapiens.
As usually defined, the AC50 is the concentration giving half of the maximal activity seen. For `COc1cccc2sc3cc(C#CC4(O)CCCCC4)ccc3c(=O)c12`, the AC50 was 2.4 µM (active).
Still for that read-out and setting: next, `C=CCn1c(SCCC)nc2sc3c(c2c1=O)CCc1ccccc1-3`: 1.1 µM (active); `COc1cccc(-c2sc3ccc(OC)cc3c2C#CCCO)c1`: 2.79 µM (active).

The next experiment relates to Streptococcus. The experiment is described as follows: GAS UMAA2166 growth inhibition – luminescence, BacTiterGlo, counter-screen for streptokinase expression inhibitor project, dose response (AID 1915).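 Note: potency for reduction of bacterial viability or growth.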 The experiment is classed as functional, organism-based.
Conditions: not given
Regarding `CC1CC(NC(=O)c2c(O)n3ccsc3nc2=O)CC(C)(C)C1` (stereo not drawn), the EC50 is listed as > 150 µM (not active).
Still for that read-out and setting: next, `CCCCn1c(O)c(N=NC(=O)c2ccccc2NS(=O)(=O)c2cccs2)c2ccccc21`: 68.3 µM (active); `N#Cc1c(N)nc(Sc2ccc(Cl)cc2)c(C#N)c1-c1ccccc1Cl`: > 150 µM (not active); `CCc1ccc(/C=C2/SC(=S)N(CC(=O)Nc3nc4ccccc4s3)C2=O)cc1`: 35.4 µM (active).
Still for that read-out and setting: the result for `Cc1cc(N2CCN(c3ccccc3Cl)CC2)n2cc(-c3ccccc3)nc2n1` reads 12 µM (active).
Consider `C/C(=N\Nc1nc2ccccc2s1)c1ccc2c(c1)OCO2`, for which the EC50 was 65.6 µM (active).
The same measure, in the same setting: next, `C=CCn1c(SC/C(O)=C(/C#N)C(C)=N)nc2sc(C)c(C)c2c1=O`: 10 µM (active).
Same read-out and setting: the result for `CC(C)c1nc(NCc2ccccc2)c(C#N)c2c1CCCC2` reads 12.2 µM (active); that for `CCc1ccc(NC2=NCC(c3ccccc3)S2)cc1` (stereo not drawn), 18.8 µM (active).

In another experiment the test system is Streptococcus sp. 'group A'. The experiment is described as follows: Streptococcus pyogenes SK(-)GAS viability under kanamycin – luminescence, BacTiterGlo, confirmation, counter-screen for streptokinase expression inhibitor project, dose response (AID 1900). The format is functional, organism-based.
Conditions: not given
Background: Counterscreens check selectivity or assay interference.
Regarding `CC1CC(NC(=O)c2c(O)n3ccsc3nc2=O)CC(C)(C)C1` (stereo not drawn), the EC50 is 11.3 µM (active).
For the molecule `CCCCn1c(O)c(N=NC(=O)c2ccccc2NS(=O)(=O)c2cccs2)c2ccccc21`, the EC50 is 21.8 µM (active).
On the same count and under the same terms, the result for `N#Cc1c(N)nc(Sc2ccc(Cl)cc2)c(C#N)c1-c1ccccc1Cl` reads 4.24 µM (active); that for `CCc1ccc(/C=C2/SC(=S)N(CC(=O)Nc3nc4ccccc4s3)C2=O)cc1`, 2.87 µM (active).
Same read-out and setting: next, `Cc1cc(N2CCN(c3ccccc3Cl)CC2)n2cc(-c3ccccc3)nc2n1`: 11.5 µM (active).
Still for that read-out and setting: next, `C/C(=N\Nc1nc2ccccc2s1)c1ccc2c(c1)OCO2`: 16.7 µM (active); `C=CCn1c(SC/C(O)=C(/C#N)C(C)=N)nc2sc(C)c(C)c2c1=O`: 6.33 µM (active); `CC(C)c1nc(NCc2ccccc2)c(C#N)c2c1CCCC2`: 4.75 µM (active).
With `CCc1ccc(NC2=NCC(c3ccccc3)S2)cc1` (stereo not drawn), the EC50 is 8.39 µM (active).
